Experimental data published in patent US20030114388A1, “Auxiliary agents for ophthalmic operation” (priority 2000, published 2003).

Test system: intraoperative bleeding in a patient suffering from diabetic retinopathy with increased intrinsic coagulation tendency
Experiment: Systemic drip infusion of argatroban during ophthalmic operation in a patient with diabetic retinopathy (Example 1)
Assay type: in vivo
Details: one patient
Procedure: The present invention will be more specifically explained by referring to an example. However, as for as within the gist of the present invention, the present invention is not limited to the following example. As argatroban in the following example, a drug commercially available as the tradename “Slonnon” was used.
The patient was a youth suffering from diabetic retinopathy with increased intrinsic coagulation tendency. […] Argatroban 10 mg as one ample was added to a drip infusion (specify ingredients, and a tradename and name of a manufacturing company if commercially available) and systemically administered to the patient from the beginning of the operation. The operation was completed for 2 hours.
The above patient was a youth suffering from diabetic retinopathy with increased intrinsic coagulation tendency, and if treated under an ordinary operation, intraoperative bleedings would have expected to be easy clotting and caused operative difficulties.

[1] = argatroban 10 mg drip infusion during operation

Compound: CC1CNc2c(cccc2S(=O)(=O)NC(CCCNC(=N)N)C(=O)N2CCC(C)CC2C(=O)O)C1 (mixture of isomers) [argatroban, (2R,4R)-4-methyl-1-[N^2((RS)-3-methyl-1,2,3,4-tetrahydro-8-quinolinesulfonyl)-L-arginyl]-2-piperidinecarboxylic acid monohydrate]
- abnormal bleeding tendency [1]: No abnormal bleeding tendency was not observed
- ease of treatment of intraoperative bleeding [1]: treatment of intraoperative bleeding became easier
- removal of intraoperative bleedings (argatroban 10 mg drip infusion, passive suction using a back flash needle): successfully removed by passive suction using a back flash needle
- preretinal clotting mass formation from intraoperative bleedings (argatroban 10 mg in drip infusion, systemic, from beginning of operation, 2 hour operation, treatment of fibrous vascular proliferating membrane): all of the bleedings did not give preretinal clotting mass
- intraoperative iatrogenic tear (during treatment of fibrous vascular proliferating membrane, argatroban 10 mg drip infusion): no intraoperative iatrogenic tear was caused
